Experimental data taken from patent publication US6864253B2, “Benzo[4,5]thieno[2,3-c]pyridine and Benzo[4,5]furo[2,3-c]pyridine Derivatives Useful as Inhibitors of Phosphodiesterase” (Orth-McNeil Pharmaceutical, Inc., priority 2000, dated 2005).

These compounds were tested against PDEV (Oryctolagus cuniculus, UniProt G1SX67) (assay: Cyclic nucleotide phosphodiesterase (PDE) assay, inhibition of PDEV isolated from rabbit tissue). Conditions: 10 μM test compound; rabbit PDEV.
Type: biochemical
Protocol: Briefly, rabbit or human tissues were homogenized in an ice-cold buffer solution containing 20 mM HEPES (pH 7.2), 0.25M sucrose, 1 mM EDTA, and 1 mM phenylmethylsulphonyl fluoride (PMSF). The homogenates were centrifuged at 100,000 g for 60 minutes at 4° C. The supernatant was filtered through […] filter and loaded on a Pharmacia Mono Q anion exchange column (1 ml bed volume) that was equilibrated with 20 mM HEPES, 1 mM EDTA and 0.5 mM PMSF. […] The fractions comprising various PDE activities were pooled separately and used in later studies.
The assays were adapted to a 96-well format. The enzyme was assayed in 5 mM MgCl2, 15 mM Tris HCl (pH 7.4), 0.5 mg/ml bovine serum albumin, 1 μM cGMP or cAMP, 0.1 μCi [^3H]-cGMP or [^3H]-cAMP, and 2-10 μl of column elution. The total volume of the assay was 100 μl. The reaction mixture was incubated at 30° C. for 30 minutes. The reaction was stopped by boiling for 1 minute and then cooled down on ice. The resulting [^3H] 5′-mononucleotides were further converted to uncharged [^3H]-nucleosides by adding 25 μl 1 mg/ml snake venom (Ophiophagus hannah) and incubating at 30° C. for 10 minute. The reaction was stopped by the addition of 1 ml Bio-Rad AG1-X2 resin slurry (1:3). All the charged nucleotides were bound by the resin and only the uncharged [^3H]-nucleosides remained in the supernatant after centrifuging. An aliquot of 200 μl was taken and counted by liquid scintillation. PDE activity was expressed as pmol cyclic nucleotide hydrolyzed/min/ml of enzyme preparation.
Inhibitor studies were carried out in assay buffer with a final concentration of 10% DMSO.
With O=C(c1ccc(-c2cccc(C(F)(F)F)c2)o1)N1CCc2c(n(Cc3ccncc3)c3ccccc23)C1c1ccc2c(c1)OCO2 (stereo not drawn) [Cmpd 74] the “% Inh @ 10 μM (rabbit)” value was 84%.
In the case of Cc1oc(-c2ccccc2)cc1C(=O)N1CCc2c([nH]c3ccccc23)C1c1ccc2c(c1)OCO2 (racemic) [Cmpd 104], the “% Inh @ 10 μM (rabbit)” value is reported as 72%.
With c1ccc2oc(N3CCc4c(n(-c5nc6ccccc6o5)c5ccccc45)C3c3ccc4c(c3)OCO4)nc2c1 (stereo not drawn) [Cmpd 150] the “% INH @ 10 μM (rabbit)” value was 4%.
With Cc1ccc(-c2ccc(C(=O)N3CCc4c([nH]c5ccccc45)C3c3ccc4c(c3)OCO4)o2)c([N+](=O)[O-])c1 (stereo not drawn) [Cmpd 53] the “% Inh @ 10 μM (rabbit)” value was 85%.
FC(F)(F)c1cccc(-c2ccc(CN3CCc4c([nH]c5ccccc45)C3c3ccc4c(c3)OCO4)o2)c1 (stereo not drawn) [Cmpd 12] was tested, and the “% Inh @ 10 μM (rabbit)” value was 76%.
In the case of Cc1onc(-c2ccccc2)c1C(=O)N1CCc2c([nH]c3ccccc23)C1c1ccc(Cl)c(Cl)c1 (racemic) [Cmpd 109], the “% Inh @ 10 μM (rabbit)” value is reported as 31%.
O=C(c1ccc([N+](=O)[O-])o1)N1CCc2c([nH]c3ccccc23)C1c1ccc2c(c1)OCO2 (stereo not drawn) [Cmpd 64] was tested, and the “% Inh @ 10 μM (rabbit)” value was 83%.
With COc1ccc(C2c3[nH]c4ccccc4c3CCN2C(=O)c2c(-c3ccccc3)noc2C)cc1 (racemic) [Cmpd 117] the “% Inh @ 10 μM (rabbit)” value was 32%.
Cc1onc(-c2ccccc2)c1C(=O)N1CCc2c([nH]c3ccccc23)C1c1ccc([N+](=O)[O-])cc1 (racemic) [Cmpd 118] was tested, and the “% Inh @ 10 μM (rabbit)” value was 28%.
For N#Cc1ccc(C2c3[nH]c4ccccc4c3CCN2C(=O)c2ccc(-c3cccc(C(F)(F)F)c3)o2)cc1 (stereo not drawn) [Cmpd 81], the “% Inh @ 10 μM (rabbit)” value was 18%.
O=C(c1ccc(-c2cccc(C(F)(F)F)c2)o1)N1CCc2c([nH]c3ccccc23)C1c1ccccc1 (stereo not drawn) [Cmpd 88] was tested, and the “% Inh @ 10 μM (rabbit)” value was 49%.
In the case of Clc1ccc(-c2cnc(N3CCc4c([nH]c5ccccc45)C3c3ccc4c(c3)OCO4)nc2)cc1 (stereo not drawn) [Cmpd 10], the “% Inh @ 10 μM (rabbit)” value is reported as 79%.
With COC(=O)c1ccc(C2c3[nH]c4ccccc4c3CCN2C(=O)c2cnn(-c3ccccc3)c2C(F)(F)F)cc1 (stereo not drawn) [Cmpd 129] the “% Inh @ 10 μM (rabbit)” value was 46%.
For Cc1cc(C(=O)N2CCc3c([nH]c4ccccc34)C2c2ccc3c(c2)OCO3)nn1-c1ccccc1 (racemic) [Cmpd 106], the “% Inh @ 10 μM (rabbit)” value was 70%.
For CN(C)CCNC(=O)C1Cc2c([nH]c3ccccc23)C(c2ccc3c(c2)OCO3)N1C(=O)c1ccc(-c2cccc(C(F)(F)F)c2)o1 (stereo not drawn) [Cmpd 69], the “% Inh @ 10 μM (rabbit)” value was 21%.
For Cc1ccc(C2c3[nH]c4ccccc4c3CCN2C(=O)c2cnn(-c3ccccc3)c2C(F)(F)F)cc1C (racemic) [Cmpd 119], the “% Inh @ 10 μM (rabbit)” value was 28%.
For CC(=O)Nc1ccc(-c2ccc(C(=O)N3CCc4c([nH]c5ccccc45)C3c3ccc4c(c3)OCO4)o2)cc1 (stereo not drawn) [Cmpd 49], the “% Inh @ 10 μM (rabbit)” value was 60%.
O=C(c1ccc(-c2cccc(C(F)(F)F)c2)o1)N1CCc2c(n(C(=O)c3ccc(-c4cccc(C(F)(F)F)c4)o3)c3ccccc23)C1c1ccc2c(c1)OC(F)(F)O2 (stereo not drawn) [Cmpd 20] was tested, and the “% Inh @ 10 μM (rabbit)” value was 4%.
In the case of O=C(c1ccc(-c2cccc(C(F)(F)F)c2)o1)N1CCc2c([nH]c3ccccc23)C1c1cccnc1 (stereo not drawn) [Cmpd 78], the “% Inh @ 10 μM (rabbit)” value is reported as 35%.
For O=S(=O)(c1ccccc1)c1ccc(S(=O)(=O)N2CCc3c([nH]c4ccccc34)C2c2ccc3c(c2)OCO3)s1 (stereo not drawn) [Cmpd 145], the “% Inh @ 10 μM (rabbit)” value was 43%.
With O=C(c1ccc(-c2ccc(NCCCCO)cc2)o1)N1CCc2c([nH]c3ccccc23)C1c1ccc2c(c1)OCO2 (stereo not drawn) [Cmpd 60] the “% Inh @ 10 μM (rabbit)” value was 89%.
O=C(O)CCn1c2c(c3ccccc31)CCN(C(=O)c1ccc(-c3cccc(C(F)(F)F)c3)o1)C2c1ccc2c(c1)OCO2 (stereo not drawn) [Cmpd 29] was tested, and the “% Inh @ 10 μM (rabbit)” value was 79%.
For COC(=O)c1ccc(C2c3[nH]c4ccccc4c3CCN2C(=O)c2c(-c3ccccc3)noc2C)cc1 (racemic) [Cmpd 116], the “% Inh @ 10 μM (rabbit)” value was 32%.
For COC(=O)c1ccc(C2c3[nH]c4ccccc4c3CCN2C(=O)c2cc(C(C)(C)C)nn2Cc2ccccc2)cc1 (stereo not drawn) [Cmpd 140], the “% Inh @ 10 μM (rabbit)” value was 8%.
With O=C(c1cc(-c2ccc(Cl)cc2)oc1C(F)(F)F)N1CCc2c([nH]c3ccccc23)C1c1ccc2c(c1)OCO2 (racemic) [Cmpd 105] the “% Inh @ 10 μM (rabbit)” value was 40%.
With O=C(O)C1Cc2c([nH]c3ccccc23)C(c2ccc3c(c2)OCO3)N1C(=O)c1ccc(-c2cccc([N+](=O)[O-])c2)o1 (stereo not drawn) [Cmpd 67] the “% Inh @ 10 μM (rabbit)” value was 50%.
With Cc1ccc(-c2ccc(C(=O)N3CCc4c(n(CCN(C)C)c5ccccc45)C3c3ccc4c(c3)OCO4)o2)c([N+](=O)[O-])c1 (stereo not drawn) [Cmpd 42] the “% Inh @ 10 μM (rabbit)” value was 89%.
For O=C(c1cnn(-c2ccccc2)c1C(F)(F)F)N1CCc2c([nH]c3ccccc23)C1c1ccc(Cl)c(C(F)(F)F)c1 (stereo not drawn) [Cmpd 127], the “% Inh @ 10 μM (rabbit)” value was 13%.
In the case of CN(C)CCCCn1c2c(c3ccccc31)CCN(C(=O)c1ccc(-c3cccc(C(F)(F)F)c3)o1)C2c1ccc2c(c1)OCO2 (stereo not drawn) [Cmpd 34], the “% Inh @ 10 μM (rabbit)” value is reported as 67%.
O=C(c1cc2cc([N+](=O)[O-])ccc2o1)N1CCc2c([nH]c3ccccc23)C1c1ccc2c(c1)OCO2 (stereo not drawn) [Cmpd 14] was tested, and the “% Inh @ 10 μM (rabbit)” value was 88%.
In the case of Cc1ccc(-c2cnc(N3CCc4c(n(-c5ncc(-c6ccc(C)cc6)cn5)c5ccccc45)C3c3ccc4c(c3)OCO4)nc2)cc1 (stereo not drawn) [Cmpd 166], the “% INH @ 10 μM (rabbit)” value is reported as 58%.
In the case of Cc1cc(C)cc(C2c3[nH]c4ccccc4c3CCN2C(=O)c2c(-c3ccccc3)noc2C)c1 (racemic) [Cmpd 113], the “% Inh @ 10 μM (rabbit)” value is reported as 29%.
For CC(C)(C)c1ccc(C(=O)N2CCc3c([nH]c4ccccc34)C2c2ccc3c(c2)OCO3)o1 (stereo not drawn) [Cmpd 65], the “% Inh @ 10 μM (rabbit)” value was 66%.
O=C(c1cnn(-c2ccc(Cl)cc2)c1C(F)(F)F)N1CCc2c([nH]c3ccccc23)C1c1ccc2c(c1)OCO2 (stereo not drawn) [Cmpd 124] was tested, and the “% Inh @ 10 μM (rabbit)” value was 53%.
With O=C(c1ccc(-c2cccc([N+](=O)[O-])c2)o1)N1CCc2c([nH]c3ccccc23)C1c1ccncc1 (stereo not drawn) [Cmpd 86] the “% Inh @ 10 μM (rabbit)” value was 69%.
With CC(C)(C)c1cc(C(=O)N2CCc3c([nH]c4ccccc34)C2c2ccc(C#N)cc2)n(Cc2ccccc2)n1 (stereo not drawn) [Cmpd 139] the “% Inh @ 10 μM (rabbit)” value was −9%.
With O=C(c1ccc(-c2ccc(Cl)cc2)o1)N1CCc2c(sc3ccccc23)C1c1ccc2c(c1)OCO2 (stereo not drawn) [Cmpd 77] the “% Inh @ 10 μM (rabbit)” value was 58%.
For Cc1cc(C)cc(C2c3[nH]c4ccccc4c3CCN2C(=O)c2cnn(-c3ccccc3)c2C(F)(F)F)c1 (stereo not drawn) [Cmpd 126], the “% Inh @ 10 μM (rabbit)” value was 12%.
For COc1ccc2cc(C(=O)N3CCc4c([nH]c5ccccc45)C3c3ccc4c(c3)OCO4)oc2c1 (stereo not drawn) [Cmpd 15], the “% Inh @ 10 μM (rabbit)” value was 90%.
O=C(c1cc(-c2ccccc2)c(C(F)(F)F)s1)N1CCc2c([nH]c3ccccc23)C1c1ccc2c(c1)OCO2 (stereo not drawn) [Cmpd 90] was tested, and the “% Inh @ 10 μM (rabbit)” value was 69%.

Same assay, conditions: 10 μM test compound; rabbit PDEV; 10 µM
With COc1ccc(-c2cnc(N3CC(O)c4c([nH]c5ccccc45)C3c3ccc4c(c3)OCO4)nc2)cc1 (stereo not drawn) [Cmpd 164] the “% INH @ 10 μM (rabbit)” value was 82%.

Same assay, conditions: 10 μM test compound; rabbit PDEV; read-out: % INH @ 10 μM (rabbit)
c1ccc(-c2cnc(N3CCc4c([nH]c5ccccc45)C3c3ccc4c(c3)OCO4)nc2)nc1 (stereo not drawn) [Cmpd 153] was tested, and the inhibition at 10 µM was 95%.
